# In ChEMBL document CHEMBL3797023, “Irregularities in enzyme assays: The case of macrophage migration inhibitory factor” (Bioorg Med Chem Lett, 2016):
# Assay: Aqueous solubility of compound at pH 6.5 by shake-flask method
# Type: physicochemical
# Settings: aqueous medium
row,solubility thermodynamic,Structure (SMILES)
1,21.9 µg/mL,Cc1ccc2oc(=O)n(Cc3cccc(O)c3)c2c1
2,< 1 µg/mL,O=C(O)c1cccc(NC(=S)NC(=O)c2ccc(-c3ccccc3)cc2)c1
3,6 µg/mL,COc1cc(-c2nc3ccccc3s2)cc(Br)c1OCC(=O)O
4,< 5 µg/mL,COc1ccc(C(=O)O)cc1NC(=S)NC(=O)c1cc2ccccc2o1
5,27.6 µg/mL,Oc1cc2c(cc1C(c1ccc(C(F)(F)F)cc1)N1CCOCC1)OCO2 (configuration not stated)
6,3.6 µg/mL,COCCOc1ccc2nc(-c3cn(-c4ccc(O)cc4)nn3)ccc2c1
7,48.5 µg/mL,Oc1ccc(-n2cc(-c3ccc4cc(OCCOCCN5CCOCC5)ccc4n3)nn2)cc1
